Results published in paper PMC10489938, “Developing an Amide-Spacered Triterpenoid Rhodamine Hybrid of Nano-Molar Cytotoxicity Combined with Excellent Tumor Cell/Non-Tumor Cell Selectivity” (Molecules, 2023).
Like-named read-outs stand apart in the source and are kept apart here.

How the values were obtained:
[1] = tested on: HeLa (cervical adenocarcinoma); assay: SRB cytotoxicity assay, HeLa; format: cell-based, human; settings: Homo sapiens, HeLa, SRB assay, 72 h of treatment, cut-off 30 μM, read-out: Cytotoxicity (EC50) HeLa
Protocol: (§1) Sulforhodamine (SRB) assays were performed to evaluate the cytotoxicity of the compounds. First, the cytotoxicity of the different rhodamines was determined; the results of these assays are compiled in Table 1 and Table 2 and depicted in Figure 1.
(§2) Experimental equipment: as previously described biological assays were performed as previously reported employing cell lines obtained from the Department of Oncology [Martin-Luther-University Halle Wittenberg; they were bought from ATCC [2, 4, 7]]. Rhodamine 101 B, as well as asiatic acid, were obtained from local vendors and used as received.
(§3) For the SRB assay and staining experiments: as previously described.

[2] = tested on: MCF7 (breast adenocarcinoma); assay: SRB cytotoxicity assay, MCF7; format: cell-based, human; settings: Homo sapiens, MCF7, SRB assay, 72 h of treatment, cut-off 30 μM, read-out: Cytotoxicity (EC50) MCF7
Protocol: as §1, §2, §3

[3] = tested on: A2780 (ovarian carcinoma); assay: SRB cytotoxicity assay, A2780; format: cell-based, human; settings: Homo sapiens, A2780, SRB assay, 72 h of treatment, cut-off 30 μM, read-out: Cytotoxicity (EC50) A2780
Protocol: as §1, §2, §3

[4] = SRB cytotoxicity assay, NIH 3T3; format: cell-based, murine; settings: mouse, NIH 3T3 non-malignant fibroblasts, cut-off 30 μM
Protocol: as §1, §2, §3

[5] = tested on: A375 (melanoma); assay: SRB cytotoxicity assay, A375; format: cell-based, human; settings: Homo sapiens, A-375, SRB assay, 72 h of treatment, cut-off 30 μM, read-out: Cytotoxicity (EC50) A375
Protocol: as §1, §2, §3

[6] = tested on: HT29 (colorectal carcinoma); assay: SRB cytotoxicity assay, HT29; format: cell-based, human; settings: Homo sapiens, HT-29, SRB assay, 72 h of treatment, cut-off 30 μM, read-out: Cytotoxicity (EC50) HT29
Protocol: as §1, §2, §3

Structure (SMILES) | EC50 ([1]; Table 2) | EC50 ([2]; Table 2) | EC50 ([3]; Table 2) | EC50 at 72 h ([4]; Table 2, 72 h of treatment) | EC50 ([5]; Table 2) | EC50 ([6]; Table 2) | EC50 ([1]; Table 1) | EC50 ([2]; Table 1) | EC50 ([3]; Table 1) | EC50 at 72 h ([4]; Table 1, 72 h of treatment) | EC50 ([5]; Table 1) | EC50 ([6]; Table 1)
CCCCN(CCCC)c1ccc2c(-c3ccccc3C(=O)N3CCCN(C(=O)[C@]45CC[C@@H](C)[C@H](C)[C@H]4C4=CC[C@@H]6[C@@]7(C)C[C@@H](OC(C)=O)[C@H](OC(C)=O)[C@@](C)(COC(C)=O)C7CC[C@@]6(C)[C@]4(C)CC5)CCC3)c3ccc(=[N+](CCCC)CCCC)cc-3oc2c1 (stereo partly drawn) [compound 19, (2α,3β,4α)-9-[2-[{4-(2α,3β,23-Tris(Acetyloxy)-urs-12-en-28-oyl)-1,5-Diazocan-1-Yl]Carbonyl}Phenyl]-3,6-Bis(Dibutylamino)-Xanthylium Chloride] | 170 ± 80 nM | 40 ± 5 nM | 6 ± 2 nM | 240 ± 80 nM | 30 ± 10 nM | 30 ± 10 nM |  |  |  |  |  | 
CCCN(CCC)c1ccc2c(-c3ccccc3C(=O)N3CCCN(C(=O)[C@]45CC[C@@H](C)[C@H](C)[C@H]4C4=CC[C@@H]6[C@@]7(C)C[C@@H](OC(C)=O)[C@H](OC(C)=O)[C@@](C)(COC(C)=O)C7CC[C@@]6(C)[C@]4(C)CC5)CCC3)c3ccc(=[N+](CCC)CCC)cc-3oc2c1 (stereo partly drawn) [compound 18, (2α,3β,4α)-9-[2-[{4-(2α,3β,23-Tris(Acetyloxy)-urs-12-en-28-oyl)-1,5-Diazocan-1-Yl]Carbonyl}Phenyl]-3,6-Bis(Dipropylamino)-Xanthylium Chloride] | 70 ± 20 nM | 17 ± 2 nM | 1.9 ± 0.2 nM | 360 ± 50 nM | 7.4 ± 0.9 nM | 12 ± 4 nM |  |  |  |  |  | 
CCN(CC)c1ccc2c(-c3ccccc3C(=O)N3CCCN(C(=O)[C@]45CC[C@@H](C)[C@H](C)[C@H]4C4=CC[C@@H]6[C@@]7(C)C[C@@H](OC(C)=O)[C@H](OC(C)=O)[C@@](C)(COC(C)=O)C7CC[C@@]6(C)[C@]4(C)CC5)CCC3)c3ccc(=[N+](CC)CC)cc-3oc2c1 (stereo partly drawn) [compound 17, (2α,3β,4α)-9-[2-[{4-(2α,3β,23-Tris(Acetyloxy)-urs-12-en-28-oyl)-1,5-Diazocan-1-Yl]Carbonyl}Phenyl]-3,6-Bis(Diethylamino)-Xanthylium Chloride] | 60 ± 10 nM | 25 ± 20 nM | 7 ± 2 nM | 450 ± 20 nM | 30 ± 10 nM | 30 ± 10 nM |  |  |  |  |  | 
CCN(CC)c1ccc2c(-c3ccccc3C(=O)N3CCCN(C(=O)[C@]45CC[C@@H](C)[C@H](C)[C@H]4C4=CC[C@@H]6[C@@]7(C)C[C@@H](OC(C)=O)[C@H](OC(C)=O)[C@@](C)(COC(C)=O)C7CC[C@@]6(C)[C@]4(C)CC5)CC3)c3ccc(=[N+](CC)CC)cc-3oc2c1 (stereo partly drawn) [compound 12, (2α,3β,4α)-9-[2-{[4-(2α,3β,23-Tris(Acetyloxy)-urs-12-en-28-oyl)-Homopiperazinyl]Carbonyl}Phenyl]-3,6-Bis(Diethylamino)-Xanthylium Chloride] | 17.7 ± 4.9 nM | 7.1 ± 2.1 nM | 0.8 ± 0.1 nM | 65 ± 26.2 nM |  | 5.5 ± 2.3 nM |  |  |  |  |  | 
CC(=O)OC[C@@]1(C)C2CC[C@]3(C)[C@H](CC=C4[C@@H]5[C@@H](C)[C@H](C)CC[C@]5(C(=O)N5CCN(C(=O)c6ccccc6C6=c7cc8c9c(c7Oc7c6cc6c%10c7CCCN%10CCC6)CCC[N+]=9CCC8)CC5)CC[C@]43C)[C@@]2(C)C[C@@H](OC(C)=O)[C@@H]1OC(C)=O (stereo partly drawn) [compound 10] | 220 ± 50 nM | 50 ± 10 nM | 9 ± 2 nM | 250 ± 50 nM | 45 ± 4 nM | 50 ± 20 nM |  |  |  |  |  | 
CCCN(CCC)c1ccc2c(-c3ccccc3C(=O)N3CCCN(C(=O)[C@]45CC[C@@H](C)[C@H](C)[C@H]4C4=CC[C@@H]6[C@@]7(C)C[C@@H](OC(C)=O)[C@H](OC(C)=O)[C@@](C)(COC(C)=O)C7CC[C@@]6(C)[C@]4(C)CC5)CC3)c3ccc(=[N+](CCC)CCC)cc-3oc2c1 (stereo partly drawn) [compound 13, (2α,3β,4α)-9-[2-{[4-(2α,3β,23-Tris(Acetyloxy)-urs-12-en-28-oyl)-Homopiperazinyl]Carbonyl}Phenyl]-3,6-Bis(Dipropylamino)-Xanthylium Chloride] | 41 ± 9 nM | 10 ± 1 nM | 1.1 ± 0.1 nM | 100 ± 50 nM | 3.9 ± 0.6 nM | 6 ± 1 nM |  |  |  |  |  | 
CCCCN(CCCC)c1ccc2c(-c3ccccc3C(=O)N3CCN(C(=O)[C@]45CC[C@@H](C)[C@H](C)[C@H]4C4=CC[C@@H]6[C@@]7(C)C[C@@H](OC(C)=O)[C@H](OC(C)=O)[C@@](C)(COC(C)=O)C7CC[C@@]6(C)[C@]4(C)CC5)CC3)c3ccc(=[N+](CCCC)CCCC)cc-3oc2c1 (stereo partly drawn) [compound 9, (2α,3β,4α)-9-[2-{[4-(2,3,23-Tris(Acetyloxy)-urs-12-en-28-oyl)-Piperazinyl]Carbonyl}Phenyl]-3,6-Bis(Dibutylamino)-Xanthylium Chloride] | 210 ± 50 nM | 50 ± 10 nM | 4.9 ± 0.7 nM | 400 ± 100 nM | 16 ± 3 nM | 26 ± 8 nM |  |  |  |  |  | 
CC(=O)OC[C@@]1(C)C2CC[C@]3(C)[C@H](CC=C4[C@@H]5[C@@H](C)[C@H](C)CC[C@]5(C(=O)N5CCCN(C(=O)c6ccccc6C6=c7cc8c9c(c7Oc7c6cc6c%10c7CCCN%10CCC6)CCC[N+]=9CCC8)CC5)CC[C@]43C)[C@@]2(C)C[C@@H](OC(C)=O)[C@@H]1OC(C)=O (stereo partly drawn) [compound 15] | 80 ± 30 nM | 19 ± 6 nM | 3.1 ± 0.5 nM | 140 ± 50 nM | 8 ± 1 nM | 10 ± 6 nM |  |  |  |  |  | 
CCCCN(CCCC)c1ccc2c(-c3ccccc3C(=O)N3CCCN(C(=O)[C@]45CC[C@@H](C)[C@H](C)[C@H]4C4=CC[C@@H]6[C@@]7(C)C[C@@H](OC(C)=O)[C@H](OC(C)=O)[C@@](C)(COC(C)=O)C7CC[C@@]6(C)[C@]4(C)CC5)CC3)c3ccc(=[N+](CCCC)CCCC)cc-3oc2c1 (stereo partly drawn) [compound 14, (2α,3β,4α)-9-[2-{[4-(2α,3β,23-Tris(Acetyloxy)-urs-12-en-28-oyl)-Homopiperazinyl]Carbonyl}Phenyl]-3,6-Bis(Dibutylamino)-Xanthylium Chloride] | 150 ± 50 nM | 49 ± 6 nM | 4.5 ± 0.4 nM | 200 ± 100 nM | 14 ± 1 nM | 25 ± 5 nM |  |  |  |  |  | 
O=C(O)c1ccccc1C1=c2cc3c4c(c2Oc2c1cc1c5c2CCCN5CCC1)CCC[N+]=4CCC3 [Rh5, rhodamine 101, reference compound] |  |  |  |  |  |  | 11800 ± 1100 nM | 8200 ± 800 nM | 8000 ± 1500 nM | 11900 ± 1300 nM | 11200 ± 1800 nM | 18500 ± 1800 nM
CC(=O)OC[C@@]1(C)C2CC[C@]3(C)[C@H](CC=C4[C@@H]5[C@@H](C)[C@H](C)CC[C@]5(C(=O)N5CCN(C(=O)c6ccccc6-c6c7ccc(=[N+](C)C)cc-7oc7cc(N(C)C)ccc67)CC5)CC[C@]43C)[C@@]2(C)C[C@@H](OC(C)=O)[C@@H]1OC(C)=O (stereo partly drawn) [compound 6, (2α,3β,4α)-9-[2-{[4-(2,3,23-Tris(acetyloxy)-urs-12-en-28-oyl)-Piperazinyl]Carbonyl}Phenyl]-3,6-bis(Dimethylamino)-Xanthylium Chloride] | 700 ± 200 nM | 150 ± 30 nM | 43 ± 8 nM | 550 ± 60 nM | 150 ± 8 nM | 230 ± 80 nM |  |  |  |  |  | 
CCCN(CCC)c1ccc2c(-c3ccccc3C(=O)O)c3ccc(=[N+](CCC)CCC)cc-3oc2c1 [Rh3, reference compound] |  |  |  |  |  |  | 8000 ± 700 nM | 6400 ± 400 nM | 6700 ± 700 nM | 12000 ± 700 nM | 8200 ± 200 nM | 9300 ± 400 nM
COc1cccc2c1C(=O)c1c(O)c3c(c(O)c1C2=O)C[C@@](O)(C(=O)CO)C[C@@H]3O[C@H]1C[C@H](N)[C@H](O)[C@H](C)O1 [DX, doxorubicin, reference compound] |  |  |  |  |  |  |  | 1100 ± 300 nM | 20 ± 10 nM | 11900 ± 1300 nM |  | 900 ± 200 nM
